Reference: patent US20240165077A1, “COMPOSITIONS AND METHODS FOR TREATING NEUROLOGIC DISEASES” (Cognition Therapeutics, Inc., priority 2021, published 2024)
Like-named read-outs stand apart in the source and are kept apart here.

What was measured:
[1] = test system: α-synuclein oligomers (α-synO) binding to neuronal synapses; test: Displacement of alpha-synuclein oligomers: α-synO binding to neuronal synapses (ASYO5 immunostaining); assay type: cell-based, Rat; details: 24 hours; for α-synO binding to neuronal synapses: synthetic α-synO, FIG. 1D/1E
Protocol: FIG. 1A is a representative image of a neuron culture with a seeding control (7.1 nM) treated with a vehicle for 24 hours. Cultures were immunostained for the neurite marker microtubule associated protein 2 (MAP2; green) and for α-synuclein oligomers using an alpha-synuclein, oligomer-specific antibody (ASYO5 antibody, Agrisera; red). No α-synOs are present in the vehicle treated cultures.
FIG. 1B is a representative image of a neuron culture treated with synthetic α-synuclein oligomers (1 μM) for 24 hours and immunostained for the neurite marker microtubule associated protein 2 (MAP2; green) and for α-synuclein oligomers using an alpha-synuclein, oligomer-specific antibody (ASYO5 antibody, Agrisera; red).
FIG. 1C is a representative image of a neuron culture treated with synthetic α-synuclein oligomers (1 μM) and Compound A:
(10 μM) for 24 hours and immunostained for the neurite marker microtubule associated protein 2 (MAP2; green) and for α-synuclein oligomers using an alpha-synuclein, oligomer-specific antibody (ASYO5 antibody, Agrisera; red).
FIG. 1D is a graphical representation of binding affinity of α-synuclein oligomers (α-SynO) to neuronal synapses after treatment with vehicle (α-SynO) or treatment with Compound B
FIG. 1E is a graphical representation of binding affinity of α-synuclein oligomers (α-SynO) to neuronal synapses after treatment with vehicle (α-SynO) or treatment with Compound A
(§1) Rat neuronal cultures were treated with vehicle (an a seeding control (7.1 nM) without α-synuclein oligomers (α-synOs)) or synthetic α-synOs for 24 hours. Cultures were immunostained for the neurite marker microtubule associated protein 2 (MAP2; green) and for α-synOs using an alpha-synuclein, oligomer-specific antibody (ASYO5 antibody, Agrisera; red).

[2] = test system: α-synO-induced vesicle trafficking deficits; test: Vesicle trafficking in neuronal cultures treated with α-synuclein oligomers; assay type: cell-based, Rat; details: α-synOs 1.0 μM final concentration; for Emax / EC50: Rattus norvegicus; for Emax: FIG. 1F/1G, read-out: Emax, amelioration of α-synO vesicle trafficking deficit; for EC50: read-out: EC50, amelioration of α-synO vesicle trafficking deficit
Protocol: FIG. 1F is a graphical representation of vesicular trafficking in untreated control cultures, cultures treated with α-synuclein oligomers (α-SynO) for 24 hours, or cultures treated with α-synuclein oligomers (α-SynO) and Compound B
FIG. 1G is a graphical representation of vesicular trafficking in untreated control cultures, cultures treated with α-synuclein oligomers (α-SynO) for 24 hours, or cultures treated with α-synuclein oligomers (α-SynO) and Compound A
as §1
Untreated vehicle control cultures without any α-SynO addition lack α-synO immunoreactivity (FIG. 1A). […] FIGS. 1D, 1E, 1F, 1G: * p<0.05, **p<0.01, […], ****p<0.001, one-way ANOVA for drug concentration vs control with Dunnett's post-test.

α-synuclein = test: Animal models of Parkinson's disease (AAV1/2 A53T-α-synuclein overexpression; intrastriatal α-synuclein preformed fibrils); assay type: in vivo, rat; details: both models of Parkinson's disease
Source text: Examples include models of overexpression of α-synuclein or models that mimic the propagation of α-synuclein throughout the brain. One such overexpression model is the rat AAV1/2 A53T-α-synuclein model (Koprich, J. B., Johnston, T. H., Huot, P., Reyes, M. G., Espinosa, M., Brotchie, J. M., “Progressive neurodegeneration or endogenous compensation in an animal model of Parkinson's disease produced by decreasing doses of alpha-synuclein,” PLoS One, 6:1-9 (2011), which is hereby incorporated herein by reference in its entirety), where induction of α-synuclein overexpression is accompanied by loss of nigral dopaminergic cells, lower dopamine transporter levels, lower dopamine levels and motor deficits. Another example uses intrastriatal injection of preformed fibrils of α-synuclein to model propagation of Parkinson's pathology throughout the brain (Duffy, M. F., Collier, T. J., Patterson, J. R., Kemp, C. J., Fischer D. L., Stoll, A. C., Sortwell, C. E., “Quality over quantity: Advantages of using alpha-synuclein preformed fibrils triggered synucleinopathy to model idiopathic Parkinson's disease,” Front Neurosci, 12:1-10 (2018) and Patterson, J. R., Duffy, M. F., Kemp, C. J., Howe, J. W., Collier, T. J., Stoll, A. C., Miller, K. M., Patel, P., Levine, N., Moore, D. J., Luk, K. C., Fleming, S. M., Kanaan, N. M, Paumier, K. L., El Agnaf, O. M. A., Sortwell, C. […]

Row | SMILES | α-synO binding to neuronal synapses [1] | Emax [2] | EC50 ([2]; FIG. 1F) | rescue of α-synO-induced trafficking deficits [2] | deficits characteristic of Parkinson's disease and their propagation throughout the brain (α-synuclein) | punctate binding of α-synOs along neurites ([1]; 1 μM α-synO, compound 10 μM, FIG. 1B/1C) | EC50 ([2]; FIG. 1G)
1 | CC(C)=C[C@@H](CC(C)(C)c1ccc(C(F)(F)F)cc1)N1CCC(C2CCOCC2)CC1 [Compound B] | block α-synO binding to neuronal synapses in a concentration-dependent manner | 92% | 310 nM | rescue α-synO-induced trafficking deficits in a concentration-dependent manner | reduces some or all deficits that are characteristic of Parkinson's disease |  | 
2 | CC(C)(C)Oc1cc(CCC(C)(C)N2Cc3ccc(S(C)(=O)=O)cc3C2)ccc1O [Compound A] | block α-synO binding to neuronal synapses in a concentration-dependent manner | 87% |  | rescue α-synO-induced trafficking deficits in a concentration-dependent manner | reduces some or all deficits that are characteristic of Parkinson's disease | punctate binding of α-synOs along neurites in the absence (FIG. 1B) but not presence | 650 nM
